Data reported in patent publication US10988459B2 (priority 2015, dated 2021).

Target: human RIP1 kinase domain (2-375) (Homo sapiens (Human), UniProt Q13546)
Assay: biochemical
Assay type: biochemical
Conditions: human RIP1 kinase domain (2-375), 50 uM ATP, 2 hours incubation, Transcreener ADP assay; read-out: RIP1 Ki
Procedure, shortened: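 Ki^app comes from Morrison tight-binding fits of fractional activity versus compound concentration. Activity was read as ADP production, via tracer displacement lowering fluorescence polarization (633 nm laser). Conditions: 2 h, 50 nM insect-cell-expressed enzyme, 50 uM ATP, 30 mM MgCl2, 1 mM DTT, 0.5% DMSO, pH 7.5 Hepes.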

Sequence of human RIP1 kinase domain (2-375) (Q13546 2-375): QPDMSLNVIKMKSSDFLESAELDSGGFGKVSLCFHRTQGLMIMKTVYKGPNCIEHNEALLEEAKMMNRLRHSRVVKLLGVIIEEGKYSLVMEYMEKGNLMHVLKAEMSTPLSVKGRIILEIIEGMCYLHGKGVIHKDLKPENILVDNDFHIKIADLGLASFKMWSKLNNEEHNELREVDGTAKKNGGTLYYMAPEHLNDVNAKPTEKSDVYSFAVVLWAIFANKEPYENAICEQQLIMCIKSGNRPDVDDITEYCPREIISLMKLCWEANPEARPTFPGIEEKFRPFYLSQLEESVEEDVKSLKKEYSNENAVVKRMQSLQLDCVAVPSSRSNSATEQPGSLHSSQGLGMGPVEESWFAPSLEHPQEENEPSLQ

Row | Ki [nM] | Structure (SMILES)
1 | 61.7 | CN1C(=O)[C@@H](NC(=O)c2ncc3c(n2)C(C)(C)OC3)COc2ccccc21 [Example 217, (S)-7,7-dimethyl-N-(5-methyl-4-oxo-2,3,4,5-tetrahydrobenzo[b][1,4]oxazepin-3-yl)-5,7-dihydrofuro[3,4-d]pyrimidine-2-carboxamide]
2 | 25.4 | CN1C(=O)[C@@H](NC(=O)c2ncc3c(n2)C(C)(C)SC3)COc2ccccc21 [Example 218, (S)-7,7-dimethyl-N-(5-methyl-4-oxo-2,3,4,5-tetrahydrobenzo[b][1,4]oxazepin-3-yl)-5,7-dihydrothieno[3,4-d]pyrimidine-2-carboxamide]
3 | 29.7 | Cc1cc2n(n1)CC[C@H](NC(=O)c1ncn(Cc3cccc(F)c3F)n1)C(=O)N2C [Example 219, (S)-1-(2,3-difluorobenzyl)-N-(2,4-dimethyl-5-oxo-5,6,7,8-tetrahydro-4H-pyrazolo[1,5-a][1,3]diazepin-6-yl)-1H-1,2,4-triazole-3-carboxamide]
4 | 47.1 | Cc1cc2n(n1)CC[C@H](NC(=O)c1ncn(Cc3ccc(F)c(F)c3)n1)C(=O)N2C [Example 220, (S)-1-(3,4-difluorobenzyl)-N-(2,4-dimethyl-5-oxo-5,6,7,8-tetrahydro-4H-pyrazolo[1,5-a][1,3]diazepin-6-yl)-1H-1,2,4-triazole-3-carboxamide]
5 | 37.7 | Cc1cc2n(n1)CC[C@H](NC(=O)c1ncn(Cc3ccc(F)cc3F)n1)C(=O)N2C [Example 221, (S)-1-(2,4-difluorobenzyl)-N-(2,4-dimethyl-5-oxo-5,6,7,8-tetrahydro-4H-pyrazolo[1,5-a][1,3]diazepin-6-yl)-1H-1,2,4-triazole-3-carboxamide]
6 | 25.9 | Cc1cc2n(n1)CC[C@H](NC(=O)c1ncn(Cc3ccc(F)cc3)n1)C(=O)N2C [Example 222, (S)—N-(2,4-dimethyl-5-oxo-5,6,7,8-tetrahydro-4H-pyrazolo[1,5-a][1,3]diazepin-6-yl)-1-(4-fluorobenzyl)-1H-1,2,4-triazole-3-carboxamide]
7 | 31.9 | CN1C(=O)[C@@H](NC(=O)c2ncn(Cc3ccc(F)c(F)c3)n2)CCn2nc(C3CC3)cc21 [Example 223, (S)—N-(2-cyclopropyl-4-methyl-5-oxo-5,6,7,8-tetrahydro-4H-pyrazolo[1,5-a][1,3]diazepin-6-yl)-1-(3,4-difluorobenzyl)-1H-1,2,4-triazole-3-carboxamide]
8 | 21.9 | CN1C(=O)[C@@H](NC(=O)c2ncn(Cc3ccc(F)cc3F)n2)CCn2nc(C3CC3)cc21 [Example 224, (S)—N-(2-cyclopropyl-4-methyl-5-oxo-5,6,7,8-tetrahydro-4H-pyrazolo[1,5-a][1,3]diazepin-6-yl)-1-(2,4-difluorobenzyl)-1H-1,2,4-triazole-3-carboxamide]
9 | 21 | CN1C(=O)[C@@H](NC(=O)c2ncn(Cc3ccc(F)cc3)n2)CCn2nc(C3CC3)cc21 [Example 225, (S)—N-(2-cyclopropyl-4-methyl-5-oxo-5,6,7,8-tetrahydro-4H-pyrazolo[1,5-a][1,3]diazepin-6-yl)-1-(4-fluorobenzyl)-1H-1,2,4-triazole-3-carboxamide]

Same assay, conditions: human RIP1 kinase domain (2-375), Transcreener ADP assay, 50 uM ATP, 2 hours incubation; read-out: RIP1 Ki

Row | Ki [nM] | Structure (SMILES)
10 | 183 | Cc1ncn2c1N(C)C(=O)C(NC(=O)c1n[nH]c(Cc3ccccc3)n1)CC2 (centres unmarked) [Example 226, 5-benzyl-N-(1,9-dimethyl-2-oxo-2,3,4,5-tetrahydro-1H-imidazo[1,5-a][1,3]diazepin-3-yl)-1H-1,2,4-triazole-3-carboxamide]
11 | 419 | Cc1ncn2c1N(C)C(=O)C(NC(=O)c1cn(Cc3ccccc3)nn1)CC2 (centres unmarked) [Example 227, 1-benzyl-N-(1,9-dimethyl-2-oxo-2,3,4,5-tetrahydro-1H-imidazo[1,5-a][1,3]diazepin-3-yl)-1H-1,2,3-triazole-4-carboxamide]
12 | 5 | CC(C)c1ccc2[nH]nc(C(=O)N[C@H]3COc4ccccc4N(C)C3=O)c2c1 [Example 228, (S)-5-isopropyl-N-(5-methyl-4-oxo-2,3,4,5-tetrahydrobenzo[b][1,4]oxazepin-3-yl)-1H-indazole-3-carboxamide]
13 | 44.6 | CN1C(=O)[C@@H](NC(=O)c2cc3c(cn2)COC3(C)CC(F)(F)F)COc2ccccc21 (stereo partly drawn) [Example 229, 1-methyl-N—((S)-5-methyl-4-oxo-2,3,4,5-tetrahydrobenzo[b][1,4]oxazepin-3-yl)-1-(2,2,2-trifluoroethyl)-1,3-dihydrofuro[3,4-c]pyridine-6-carboxamide]
14 | 21.7 | CN1C(=O)[C@@H](NC(=O)c2ncn3cnc(C(F)(F)F)cc23)COc2ccccc21 [Example 230, (S)—N-(5-methyl-4-oxo-2,3,4,5-tetrahydrobenzo[b][1,4]oxazepin-3-yl)-7-(trifluoromethyl) imidazo[1,5-c]pyrimidine-1-carboxamide]
15 | 511 | COCC1(C)OCc2cnc(C(=O)N[C@H]3COc4ccccc4N(C)C3=O)cc21 (stereo partly drawn) [Example 231, 1-(methoxymethyl)-1-methyl-N—((S)-5-methyl-4-oxo-2,3,4,5-tetrahydrobenzo[b][1,4]oxazepin-3-yl)-1,3-dihydrofuro[3,4-c]pyridine-6-carboxamide]
16 | 88.7 | CN1C(=O)[C@@H](NC(=O)c2cc3c(cn2)COC32CCOC2)COc2ccccc21 (stereo partly drawn) [Example 232, N—((S)-5-methyl-4-oxo-2,3,4,5-tetrahydrobenzo[b][1,4]oxazepin-3-yl)-4,5-dihydro-2H,3′ H-spiro[furan-3,1′-furo[3,4-c]pyridine]-6′-carboxamide]
17 | 2000 | CC[C@@]1(C)OCc2cnc(C(=O)NC3CCn4ccnc4N(C)C3=O)cc21 (stereo partly drawn) [Example 233, (1R)-1-ethyl-1-methyl-N-(9-methyl-8-oxo-6,7,8,9-tetrahydro-5H-imidazo [1,2-a][1,3]diazepin-7-yl)-1,3-dihydrofuro[3,4-c]pyridine-6-carboxamide]
18 | 199 | CN1C(=O)C(NC(=O)c2ncn(Cc3ccccc3)n2)CCn2nc(C3CCOCC3)cc21 (centres unmarked) [Example 234, 1-benzyl-N-(4-methyl-5-oxo-2-(tetrahydro-2H-pyran-4-yl)-5,6,7,8-tetrahydro-4H-pyrazolo[1,5-a][1,3]diazepin-6-yl)-1H-1,2,4-triazole-3-carboxamide]
19 | 226 | CN1C(=O)C(NC(=O)c2n[nH]c(Cc3ccccc3)n2)CCn2nc(C3CCOCC3)cc21 (centres unmarked) [Example 235, 5-benzyl-N-(4-methyl-5-oxo-2-(tetrahydro-2H-pyran-4-yl)-5,6,7,8-tetrahydro-4H-pyrazolo[1,5-a][1,3]diazepin-6-yl)-1H-1,2,4-triazole-3-carboxamide]
20 | 8000 | CC[C@@]1(C)OCc2cnc(C(=O)NC3CCn4nc(C5CCOCC5)cc4N(C)C3=O)cc21 (stereo partly drawn) [Example 236, (1R)-1-ethyl-1-methyl-N-(4-methyl-5-oxo-2-(tetrahydro-2H-pyran-4-yl)-5,6,7,8-tetrahydro-4H-pyrazolo[1,5-a][1,3]diazepin-6-yl)-1,3-dihydrofuro[3,4-c]pyridine-6-carboxamide]
21 | 1400 | CN1C(=O)C(NC(=O)c2cn(Cc3ccccc3)nn2)CCn2nc(C3CCOCC3)cc21 (centres unmarked) [Example 237, 1-benzyl-N-(4-methyl-5-oxo-2-(tetrahydro-2H-pyran-4-yl)-5,6,7,8-tetrahydro-4H-pyrazolo[1,5-a][1,3]diazepin-6-yl)-1H-1,2,3-triazole-4-carboxamide]
22 | 289 | CN1C(=O)[C@@H](NC(=O)c2n[nH]c3ncc(C4CC4)cc23)COc2ccccc21 [Example 239, (S)-5-cyclopropyl-N-(5-methyl-4-oxo-2,3,4,5-tetrahydrobenzo[b][1,4]oxazepin-3-yl)-1H-pyrazolo[3,4-b]pyridine-3-carboxamide]
23 | 8900 | Cc1cc2n(n1)CC[C@@H](NC(=O)c1nnc(Cc3ccccc3)[nH]1)C(=O)N2C [Example 241, (R)-5-benzyl-N-(2,4-dimethyl-5-oxo-5,6,7,8-tetrahydro-4H-pyrazolo[1,5-a][1,3]diazepin-6-yl)-4H-1,2,4-triazole-3-carboxamide]
24 | 5700 | Cc1cc(Cn2cnc(C(=O)NC3CCn4nc(C5CC5)cc4N(C)C3=O)n2)ccn1 (centres unmarked) [Example 242, N-(2-cyclopropyl-4-methyl-5-oxo-5,6,7,8-tetrahydro-4H-pyrazolo[1,5-a][1,3]diazepin-6-yl)-1-((2-methylpyridin-4-yl)methyl)-1H-1,2,4-triazole-3-carboxamide]
25 | 270 | CC[C@]1(C)OCc2cnc(C(=O)N[C@H]3COc4cc(F)cc(F)c4NC3=O)cc21 [Example 243, (S)—N—((S)-6,8-difluoro-4-oxo-2,3,4,5-tetrahydrobenzo[b][1,4]oxazepin-3-yl)-1-ethyl-1-m ethyl-1,3-dihydrofuro[3,4-c]pyridine-6-carboxamide]
26 | 36.8 | CC[C@@]1(C)OCc2cnc(C(=O)N[C@H]3COc4cc(F)cc(F)c4NC3=O)cc21 [Example 244, (R)—N—((S)-6,8-difluoro-4-oxo-2,3,4,5-tetrahydrobenzo[b][1,4]oxazepin-3-yl)-1-ethyl-1-methyl-1,3-dihydrofuro[3,4-c]pyridine-6-carboxamide]
27 | 782 | CC[C@@]1(C)OCc2cnc(C(=O)N[C@H]3CCn4nc(C5CC5)cc4N(C)C3=O)cc21 [Example 245, (R)—N—((S)-2-cyclopropyl-4-methyl-5-oxo-5,6,7,8-tetrahydro-4H-pyrazolo[1,5-a][1,3]diazepin-6-yl)-1-ethyl-1-methyl-1,3-dihydrofuro[3,4-c]pyridine-6-carboxamide]

Row | Structure (SMILES) | Ki [nM]
28 | CC(C)c1cnc2[nH]nc(C(=O)N[C@H]3COc4ccccc4N(C)C3=O)c2c1 [Example 238, (S)-5-isopropyl-N-(5-methyl-4-oxo-2,3,4,5-tetrahydrobenzo[b][1,4]oxazepin-3-yl)-1H-pyrazolo[3,4-b]pyridine-3-carboxamide] | 54.7
29 | Cc1cc2n(n1)CC[C@H](NC(=O)c1nnc(Cc3ccccc3)[nH]1)C(=O)N2C [Example 240, (S)-5-benzyl-N-(2,4-dimethyl-5-oxo-5,6,7,8-tetrahydro-4H-pyrazolo[1,5-a][1,3]diazepin-6-yl)-4H-1,2,4-triazole-3-carboxamide] | 84.6
